Results on 24 compounds are retold here after patent publication US20230121086A1, “RORgT INHIBITOR, PREPARATION METHOD THEREOF AND USE THEREOF” (SUNSHINE LAKE PHARMA CO., LTD., priority 2020, published 2023).

In this experiment the target is T1, RORγt (Homo sapiens, UniProt P51449).
T1 construct: […]
T1 sequence (P51449 269-508 limits assumed): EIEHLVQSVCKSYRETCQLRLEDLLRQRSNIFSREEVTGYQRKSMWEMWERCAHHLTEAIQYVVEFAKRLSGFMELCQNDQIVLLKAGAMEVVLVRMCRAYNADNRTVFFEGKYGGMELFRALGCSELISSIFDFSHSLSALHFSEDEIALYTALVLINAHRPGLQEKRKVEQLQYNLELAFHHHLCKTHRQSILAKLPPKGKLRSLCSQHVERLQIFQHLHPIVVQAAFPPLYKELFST
The experiment can be described thus: Fluorescence resonance energy transfer (FRET) test, inhibitory activity of RORγt. It counts as biochemical. The conditions noted are these: FRET, B-RORγt LBD / Biotin-SRC1; read-out: IC50.
As for `CCS(=O)(=O)c1ccc([C@H](CC#N)NC(=O)c2ccc(N3CC(Oc4ccc(C(F)(F)F)cc4)C[C@H]3COC(F)F)cc2)cc1` (single isomer, unassigned) [Example 74], the 50% inhibitory concentration (IC50) (in general, the point on the concentration scale where inhibition reaches its midpoint) was 70 nM. In the case of `CCS(=O)(=O)c1ccc([C@@H](CC#N)NC(=O)c2ccc(N3CC(Oc4ccc(C(F)(F)F)cc4)C[C@H]3COC(F)F)cc2)cc1` (stereo in doubt) [Example 48, N-((R)-2-cyano-1-(4-(ethylsulfonyl)phenyl)ethyl)-4-((2S,4S)-2-((difluoromethoxy)methyl)-4-(4-(trifluoromethyl)phenoxy)pyrrolidin-1-yl)benzamide], the IC50 was 8 nM. Next, `CCS(=O)(=O)c1ccc([C@H](CC#N)NC(=O)c2ccc(N3CC(Oc4ccc(C(F)(F)F)cc4)C[C@H]3COC(F)F)cc2)nc1` (stereo in doubt) [Example 49, N-((S)-2-cyano-1-(5-(ethylsulfonyl)pyridin-2-yl)ethyl)-4-((2S,4S)-2-((difluoromethoxy)methyl)-4-(4-(trifluoromethyl)phenoxy)pyrrolidin-1-yl)benzamide]: 28 nM; `CCS(=O)(=O)c1ccc([C@H](CC#N)NC(=O)c2cnc(N3CC(Oc4ccc(C(F)(F)F)cc4)C[C@H]3COC(F)F)c(F)c2)cc1` (stereo in doubt) [Example 50, N-((S)-2-cyano-1-(4-(ethylsulfonyl)phenyl)ethyl)-6-((2S,4S)-2-((difluoromethoxy)methyl)-4-(4-(trifluoromethyl)phenoxy)pyrrolidin-1-yl)-5-fluoronicotinamide]: 16 nM; `CCS(=O)(=O)c1ccc([C@H](CCC#N)NC(=O)c2ccc(N3CC(Oc4ccc(C(F)(F)F)cc4)C[C@H]3COC(F)F)cc2)cc1` (stereo in doubt) [Example 51, N-((S)-3-cyano-1-(4-(ethylsulfonyl)phenyl)propyl)-4-((2S,4S)-2-((difluoromethoxy)methyl)-4-(4-(trifluoromethyl)phenoxy)pyrrolidin-1-yl)benzamide]: 14 nM.

As to `CCS(=O)(=O)c1ccc([C@H](CC#N)NC(=O)c2ccc(N3CC(Oc4ccc(C(F)(F)F)nc4)C[C@H]3COC(F)F)cc2)cc1` (stereo in doubt) [Example 57, N-((S)-2-cyano-1-(4-(ethylsulfonyl)phenyl)ethyl)-4-((2S,4S)-2-((difluoromethoxy)methyl)-4-((6-(trifluoromethyl)pyridine-3-yl)oxy)pyrrolidin-1-yl)benzamide], the IC50 came out at 41 nM. With `CCS(=O)(=O)c1ccc([C@H](CC#N)NC(=O)c2ccc(N3CC(Oc4ccc(C(F)(F)F)cc4)C[C@H]3COC(F)F)cc2F)cc1` (stereo in doubt) [Example 59, N-((S)-2-cyano-1-(4-(ethylsulfonyl)phenyl)ethyl)-4-((2S,4S)-2-((difluoromethoxy)methyl)-4-(4-(trifluoromethyl)phenoxy)pyrrolidin-1-yl)-2-fluorobenzamide], the IC50 was found to be 47 nM. Under `CCS(=O)(=O)c1ccc([C@H](CC#N)NC(=O)c2ccc(N3CC(Oc4ccc(C(F)(F)F)cc4)C[C@H]3COC(F)F)c(OC)c2)cc1` (stereo in doubt) [Example 60, N-((S)-2-cyano-1-(4-(ethylsulfonyl)phenyl)ethyl)-4-((2S,4S)-2-((difluoromethoxy)methyl)-4-(4-(trifluoromethyl)phenoxy)pyrrolidin-1-yl)-3-methoxybenzamide] stands 81 nM; under `CCS(=O)(=O)c1ccc([C@H](CC#N)NC(=O)c2ccc(N3CC(Oc4ccc(OC)cc4)C[C@H]3COC(F)F)cc2)cc1` (stereo in doubt) [Example 63, N-((S)-2-cyano-1-(4-(ethylsulfonyl)phenyl)ethyl)-4-((2S,4S)-2-((difluoromethoxy)methyl)-4-(4-methoxyphenoxy)pyrrolidin-1-yl)benzamide], 7 nM. Turning to `CCS(=O)(=O)c1ccc([C@H](CC#N)NC(=O)c2ccc(N3CC(Oc4ccc(C(F)(F)F)cc4)C[C@H]3COC(F)(F)F)cc2)cc1` (stereo in doubt) [Example 70, N-((S)-2-cyano-1-(4-(ethylsulfonyl)phenyl)ethyl)-4-((2S,4S)-2-((trifluoromethoxy)methyl)-4-(4-(trifluoromethyl)phenoxy)pyrrolidin-1-yl)benzamide], the IC50 came out at 26 nM. Under `CCS(=O)(=O)c1ccc([C@H](CC#N)NC(=O)c2cnc(N3CC(Oc4ccc(C(F)(F)F)cc4)C[C@H]3COC(F)(F)F)nc2)cc1` (stereo in doubt) [Example 72, N-((S)-2-cyano-1-(4-(ethylsulfonyl)phenyl)ethyl)-2-((2S,4S)-2-((trifluoromethoxy)methyl)-4-(4-(trifluoromethyl)phenoxy)pyrrolidin-1-yl)pyrimidine-5-carboxamide] stands 34 nM; under `CCS(=O)(=O)c1ccc(C(CC#N)NC(=O)c2ccc(N3CC(c4ccc(C(F)(F)F)cc4)C[C@H]3COC(F)F)cc2)cc1` (stereo in doubt) [Example 81, N—((S)-2-cyano-1-(4-(ethylsulfonyl)phenyl)ethyl)-4-((2S,4S)-2-((difluoromethoxy)methyl)-4-(4-(trifluoromethyl)phenyl)pyrrolidin-1-yl)benzamide], 44 nM; under `CCS(=O)(=O)c1ccc([C@H](CC#N)NC(=O)c2ccc(N3CCC(Oc4ccc(C(F)(F)F)cc4)C3)c(F)c2)cc1` (stereo in doubt) [Example 83, N-((S)-2-cyano-1-(4-(ethylsulfonyl)phenyl)ethyl)-3-fluoro-4-((S)-3-(4-(trifluoromethyl)phenoxy)pyrrolidin-1-yl)benzamide], 91 nM. Under `CCS(=O)(=O)c1ccc([C@H](CC#N)NC(=O)c2ccc(N3C[C@@H](Oc4ccc(-n5ccnc5)cc4)C[C@H]3COC(F)F)cc2)cc1` [Example 5, 4-((2S,4S)-4-(4-(1H-imidazol-1-yl)phenoxy)-2-((difluoromethoxy)methyl)pyrrolidin-1-yl)-N-((S)-2-cyano-1-(4-(ethylsulfonyl)phenyl)ethyl)benzamide] stands 36.1 nM; under `CCS(=O)(=O)c1ccc([C@H](CC#N)NC(=O)c2ccc(N3C[C@@H](Oc4ccc(N)cc4)C[C@H]3COC(F)F)cc2)cc1` [Example 7, 4-((2S,4S)-4-(4-aminophenoxy)-2-((difluoromethoxy)methyl)pyrrolidin-1-yl)-N-((S)-2-cyano-1-(4-(ethylsulfonyl)phenyl)ethyl)benzamide], 57.5 nM.

Regarding `CCS(=O)(=O)c1ccc([C@H](CC#N)NC(=O)c2ccc(N3C[C@@H](Oc4ccc(OC(F)(F)F)cn4)C[C@H]3COC(F)F)cc2)cc1` [Example 8, N-((S)-2-cyano-1-(4-(ethylsulfonyl)phenyl)ethyl)-4-((2S,4S)-2-((difluoromethoxy)methyl)-4-((5-(trifluoromethoxy)pyridin-2-yl)oxy)pyrrolidin-1-yl)benzamide], the IC50 stood at 18.8 nM. Next, `CCS(=O)(=O)c1ccc([C@H](CC#N)NC(=O)c2ccc(N3C[C@@H](Oc4ccc(OC(F)F)nc4)C[C@H]3COC(F)F)cc2)cc1` [Example 9, N-((S)-2-cyano-1-(4-(ethylsulfonyl)phenyl)ethyl)-4-((2S,4S)-2-((difluoromethoxy)methyl)-4-((6-(difluoromethoxy)pyridin-3-yl)oxy)pyrrolidin-1-yl)benzamide]: 25.8 nM. Under `CCS(=O)(=O)c1ccc([C@H](CC#N)NC(=O)c2ccc(N3C[C@@H](Oc4ccc(OC)nc4)C[C@H]3COC(F)F)cc2)cc1` [Example 10, N-((S)-2-cyano-1-(4-(ethylsulfonyl)phenyl)ethyl)-4-((2S,4S)-2-((difluoromethoxy)methyl)-4-((6-methoxypyridine-3-yl)oxy)pyrrolidin-1-yl)benzamide] stands 19 nM; under `CCS(=O)(=O)c1ccc([C@H](CC#N)NC(=O)c2ccc(N3C[C@@H](Oc4ccc(OC(F)(F)F)nc4)C[C@H]3COC(F)F)cc2)cc1` [Example 11, N-((S)-2-cyano-1-(4-(ethylsulfonyl)phenyl)ethyl)-4-((2S,4S)-2-((difluoromethoxy)methyl)-4-((6-(trifluoromethoxy)pyridin-3-yl)oxy)pyrrolidin-1-yl)benzamide], 27 nM; under `CCS(=O)(=O)c1ccc([C@@H](CC#N)NC(=O)c2ccc(N3C[C@@H](Oc4ccc(OC(F)F)cc4)C[C@H]3COC(F)F)cc2)cc1` [Example 12, N-((R)-2-cyano-1-(4-(ethylsulfonyl)phenyl)ethyl)-4-((2S,4S)-2-((difluoromethoxy)methyl)-4-(4-(difluoromethoxy)phenoxy)pyrrolidin-1-yl)benzamide], 21.5 nM. Next, `CCS(=O)(=O)c1ccc([C@H](CC#N)NC(=O)c2ccc(N3C[C@@H](Oc4ccc(OC(F)F)cc4)C[C@H]3COC(F)F)cc2)nc1` [Example 13, N-((S)-2-cyano-1-(5-(ethylsulfonyl)pyridin-2-yl)ethyl)-4-((2S,4S)-2-((difluoromethoxy)methyl)-4-(4-(difluoromethoxy)phenoxy)pyrrolidin-1-yl)benzamide]: 31.4 nM. Take `CCS(=O)(=O)c1ccc([C@H](CC#N)NC(=O)c2ccc(N3C[C@@H](Oc4ccc(C)nc4)C[C@H]3COC(F)F)cc2)cc1` [Example 15, N-((S)-2-cyano-1-(4-(ethylsulfonyl)phenyl)ethyl)-4-((2S,4S)-2-((difluoromethoxy)methyl)-4-((6-methylpyridin-3-yl)oxy)pyrrolidin-1-yl)benzamide]: the IC50 is 78.7 nM.

On to `CCS(=O)(=O)c1ccc([C@@H](CC#N)NC(=O)c2ccc(N3C[C@@H](Oc4ccc(OC(F)(F)F)cn4)C[C@H]3COC(F)F)cc2)cc1` [Example 17, N-((R)-2-cyano-1-(4-(ethylsulfonyl)phenyl)ethyl)-4-((2S,4S)-2-((difluoromethoxy)methyl)-4-((5-(trifluoromethoxy)pyridin-2-yl)oxy)pyrrolidin-1-yl)benzamide], for which the IC50 amounted to 14.9 nM.

`CCS(=O)(=O)c1ccc([C@H](CC#N)NC(=O)c2ccc(N3C[C@@H](Oc4ccc(OC(F)(F)F)cn4)C[C@H]3COC(F)F)nc2)cc1` [Example 18]: the IC50 worked out at 25.9 nM.
